In one data set the test system is self-stimulation reward. Kind of data set: Self-stimulation reward test. The following applies: for Max. DSSR: DSSR 0.3 designated as 100%. The class given is in vivo, rats. From the text: The procedure measured the capacity of a given pharmacological agent to inhibit rats from receiving stimulating currents provided by electrodes implanted in their brains (lateral hypothalamus), Stellar et al, Pharmacol. Biochem. & Behav., 18,433-442 (1983). The animals will press a lever to receive a current from the implanted electrode in preference to all else. The rate at which they press the lever depends on the intensity of the current (reward) that is being produced by the electrode. The intensity of the current is varied by raising the frequency at which […] pulses (0.1 msec duration) are delivered during a 0.5 sec time span in response to a lever press. A plot of the log of the frequency of the delivered pulses vs. the rate of lever presses for an animal gives a self-stimulation reward curve. Injection of a drug which has a tranquilizing effect shifts such a curve to higher frequencies. The shift of this curve (measured at the halfway point) gives a parameter which is expressed as the "Depression of the Self-Stimulation Reward" or DSSR. The maximum DSSR value obtained for the most powerful neutoleptics and tranquilizing compounds tested so far, seldom exceeds 0.3. This is designated as 100%. In the actual tests, the maximum DSSR value obtained for a given dose of drug and the half-life time [duration half-life (DHL)] of its return to 0% (the control state) was measured.

The test system of data set [1] is bicuculline-induced epileptic seizures. Kind of data set: Delay of onset of bicuculline-induced seizures (anticonvulsant activity). The class given is in vivo, mouse. As to conditions: for In Vivo Delay of Time of Onset of Bicuculline-induced seizures: graded 0-5; for effect on bicuculline-induced seizures (in words): mice. As to the method:
In a second behavioral test, the ability of a substance to prevent or delay the onset of biculline-induced epileptic seizures was measured. […] At 24 hr after i.p. injection of the cholesteryl derivative at a dose of 30 mg/kg (64 pmol/kg), the onset of seizures was delayed by 30% after an acute i.p. injection of bicuculline at 0.3 mg/kg. […] The dexamethasone and butyl esters had no effect.
The compounds were also injected i.p. at 1, 6 and 24 hr before the administration of bicuculline (0.3 mg/kg) s.c. The latency to the onset of generalized tonic-clonic epileptic seizures and the protection against the lethality of bicuculline were measured and evaluated as a percent of the data for vehicle-injected controls. No significant changes were obtained at the 1 hr and 6 hr time points. At the 24 hr time, however, some compounds delayed while others accelerated the onset of seizures.
The effect of the compound to delay the onset of a bicuculline-induced seizures was evaluated.
The ability of a substance to delay the onset of bicuculline-induced epileptic seizures in the mouse was measured (Table X). […] At 24 hr after i.p. injection of the cholesteryl derivative (6) at a dose of 30 mg/kg (64 pmol/kg), the onset of seizures was delayed by 30% (as compared to saline controls) after an acute i.p. injection of bicuculline at 0.3 mg/kg. […] The dexamethasone and butyl esters had no effect on seizures in mice.

The test system of data set [2] is general motor activity of mice. Kind of data set: General locomotor activity of mice (Stoelting electronic activity monitor). Type of data set: in vivo, Balb/c mice. As to conditions: for activity in the general motor activity test (in words): i.p., mice. The protocol:
The effect of intraperitoneal (i.p.) injections of test compounds on the general motor activity of mice during a 60-min period was determined in a Stoelting electronic activity monitor. Dose-response curves were obtained from which the half-maximally effective values were calculated and the results are shown in Table V.
The compounds were dissolved in 25% (vols.) propylene glycol in water and injected i.p. into Balb/c mice (18-24 g). Dose-response measurements were obtained for 6 animals per dose or time point. Activity was monitored for 60 min using a Stoelting Electronic Activity Monitor (EAM) apparatus to assess the general motor activity of the animals.
The general locomotor activity of mice was measured in the Stolting activity monitor apparatus during 60 min after an intraperitoneal (i.p.) injection of a test compound.

A short description of data set [3]: Comparative brain/liver uptake of 14C-labeled compounds (Brain Penetration Index). The following applies: for increase of 5-min BPI over GABA: 5 min after s.c. injection, relative to GABA. As to the method:
The criterion used herein for measuring the extent to which a compound, from which the radical A is derived, crosses the blood-brain barrier is based on the uptake of this compound by the brain relative to its uptake by the liver. […] Measurements of the quantity of a compound present in brain and liver at 5 minutes after a subcutaneous (s.c.) injection were used to calculate a Brain Penetration Index (BPI), with the equation: [formula]
This is the amount of the compound present per gram of brain tissue as a percent of the amount per gram of liver tissue.
This procedure has the advantage that even for a sparingly soluble lipid ester, which tends to remain largely at the site of the injection and slowly diffuse into the circulation, its level in the liver will reflect the amount available rather than the initial dose injected.
The uptake of a ^14C-labeled compound into brain was compared with the uptake into liver of the same animal.
All determinations were carried out at 5 min after injection. The volumes of the injected doses into mice (body weight, 18-24 g) for the i.v., i.p., and s.c. doses were 0.15, 0.3 and 0.5 ml, respectively. […] Each tissue was homogenized in 8 ml of pyridine in a glass homogenizer.
Each labeled test compound was injected as a solution in 0.5 ml of saline (Compound 7) or in 25% propylene glycol in water (Compounds 1, 5, 6) subcutaneously (s.c.) into young adult Balb/c mice (18-24 g body weight). After 5 min (or longer) animals were sacrificed and the brain and liver removed, weighed and homogenized respectively in 8 ml and 10 ml of brain protein solvent (1 % (w/v) sodium dodecyl sulfate in 6 M urea and 19 mM EDTA, pH 7.4, 0.03 M phosphate). Aliquots (0.5 ml) of the homogenates were mixed with 10 ml of Aquasol 2 (New England Nuclear) and counted in a Beckman liquid scintillation counter. The total uptake of each compound per g brain and liver tissue was calculated. The proportion of uptake into brain as compared to liver (100%) of the same animal was designated as the Brain Penetration Index (BPI), expressed as a percentage typically at 5 min after injection.
Each of the ^14C-labeled Compounds 26, 28 and 30 were in 125 µl of the propylene glycol diluted with water up to 0.5 ml, and then injected subcutaneously into test Balb/c mice (20 ± 2 g weight). After 5 min the animals were sacrificed and the brain and liver were removed, weighed and homogenized in 8 ml and 10 ml of brain protein solvent, respectively. Next 0.5 ml aliquots were mixed with 10 ml of Aquasol 2 (New England Nuclear Corp., Boston, MA) and counted in a Beckman liquid scintillation counter. The data for the label in each tissue were used to calculate the total quantity of the compound present in brain and liver per gram of tissue. The ratio of the amount in brain as a percent of that present in liver at 5 min was taken as the Brain Penetration Index (BPI). Measurements at longer uptake times were also obtained to evaluate the accumulation of the compounds in the brain.

Another data set is described as follows: in vivo. The following applies: mouse, brain, sc.
Data set [4] is described as follows: n-Octanol/water partition coefficient. The following applies: n-octanol/water, 5 ml n-octanol / 5 ml water, stirring 18 hours; read-out: KOW: Octanol/Water Partition Coefficient (converted). The class given is physicochemical. As to the method:
A Partition Coefficient was defined by the equation: [formula] representing the amount of the ester taken up per ml of n-octanol relative to the amount of the same compound taken up per ml of water.
The n-octanol/water partition coefficients were obtained from measurements of the distribution of 1, 3, 5 and 6 pmol quantities of each ^14C-labeled compound into a mixture of 5 ml of n-octanol and 5 ml water. At each concentration, the amount of labeled compound in the aqueous and n-octanol phases was calculated from the amount of radioactive material present after stirring for 18 hours.

Another data set relates to CAI pyramidal cells. Type of data set: cell-based, Sprague-Dawley rats. The protocol:
Transverse slices of hippocampus (350-375 µm thick) were prepared from Sprague-Dawley rats (200-300 g) and transferred onto a nylon net fixed over a 1.5 ml superfusion chamber. The slices were maintained at 32-33°C in a humidified atmosphere of 95%/5% 02/C02. The standard medium consisted of (in mM): NaCl, 125; KCI, 3.5; CaC12,2; MgS04, 1.5; NaH2PO4, 1; NaHC03, 24; and glucose, 10. Low chloride medium was prepared by substituting sodium isethionate for sodium chloride.
Extracellular potentials were recorded with NaCI-fitted micropipettes, and stimulus pulses were applied through bipolar platinum wire electrodes. The various drugs were dissolved in fresh medium (without glucose and phosphate) and applied to the surface of the tissue by pressure ejection from a micropipette, Sakai, Swartz and Woody, (1979).
The inhibitory effectiveness of various compounds was investigated by measuring their ability to suppress the extracellular population spike recorded from the hippocampal CAI pyramidal layer and elicited by stimulation of stratum radiatum axons. The amplitude of this monosynaptic population spike is essentially proportional to the number of pyramidal cells discharging in response to a stimulus volley, Andersen, Bliss and Skrede, (1971).
The various compounds were applied as droplets to the pyramidal layer approximately 75 µm from the recording electrode. The volume of a single drug application was about 300 picoliters. […] The volume ejected from each pipette was calibrated prior to use by measuring the diameter of the ejected droplet and adjusting the duration of the pressure pulse (usually 100-500 msec) until a standard diameter was reached. A constant droplet volume was used throughout the experiments. Where dose-response information was required, several pipettes with different drug concentrations were used.

[5] abbreviates: Table IV, 380 μmol/kg s.c., 5 min, mice, mean ± S.E.M. (n = 3).
Where [6] appears, read: Table IX summary, 5-min Brain Penetration Index.
[7] abbreviates: 70 μmol/kg s.c., 5 min, mice, mean ± S.E.M. (n = 3).
Where [8] appears, read: 84 mg/kg, 24 hr pretreatment, bicuculline 0.3 mg/kg, mean ± SEM, n ≥ 6.

Where a name gives a salt, the structure may show the parent alone.

As for “1-Linolenoyl 2-gamma-aminobutyryl 3-gamma-vinyl-gamma-aminobutyryl glycerol dihydrochloride [Compound 40]”, in the data set with self-stimulation reward (dose 16 μm/kg, Depression of the Self-Stimulation Reward), the “Max. DSSR” value came out at 90. In the data set with self-stimulation reward (dose 16 μm/kg, duration half-life of return to 0%), this molecule registered a DHL of 30 min.
`CCCCOC(=O)CCCN` [Compound 1, Butyl Ester of GABA]: in data set [1], the “In Vivo Delay of Time of Onset of Bicuculline-induced seizures” value is recorded as 1 and the “effect on bicuculline-induced seizures (in words)” value is reported as “no effect”. In addition, in data set [2], the “activity in the general motor activity test (in words)” value is “not active”. In data set [3] (380 μmol/kg s.c., 60 min, mice), the “(BRAIN)” value is 14.4 nmol/g, the “(LIVER)” value turned out to be 13.7 nmol/g and the BPI is reported as 105%. Further, in data set [3], the “increase of 5-min BPI over GABA” value is 74 fold. Further, in data set [3] (setting [5]), the “(BRAIN)” value turned out to be 19.2 ± 0.3 nmol/g, the “(LIVER)” value was 26.0 ± 1.6 nmol/g and the BPI worked out at 74 ± 3.4%. Besides, the BPI in data set [3] (setting [6]) is 74. Besides, the amount remaining (commonly the share of the starting amount still present when the sample was taken) at 1 h in “in vivo” is 4%.
Take `C[C@@H]1C[C@H]2[C@@H]3CCC4=CC(=O)C=C[C@]4(C)[C@@]3(F)[C@@H](O)C[C@]2(C)[C@@]1(O)C(=O)COC(=O)CCCN` [Compound 7, Dexamethasone-21-gamma-aminobutyrate]: in data set [1], the “In Vivo Delay of Time of Onset of Bicuculline-induced seizures” value turned out to be 0 and the “effect on bicuculline-induced seizures (in words)” value is reported as “no effect”. For the same molecule, the logP at 18 h in data set [4] was -0.0458. In data set [2] (graded 0-5), the “In Vivo Inhibition of General Motor Activity” value was 0. Moreover, the “activity in the general motor activity test (in words)” value in data set [2] is “not active”. In addition, in data set [3] (setting [7]), the “(BRAIN)” value was found to be 8.7 ± 1 nmol/g, the “(LIVER)” value came out at 10.8 ± 2 nmol/g and the BPI was 81 ± 20%. For the same molecule, in data set [3] (70 μmol/kg s.c., 15 min, mice), the “(BRAIN)” value is listed as 21.5 nmol/g, the “(LIVER)” value amounted to 29.0 nmol/g and the BPI was 74%. For the same molecule, in data set [3], the “increase of 5-min BPI over GABA” value turned out to be 81 fold. Besides, the BPI in data set [3] (setting [6]) turned out to be 81.
In the case of `C=CC(N)CCC(=O)O[C@H]1CC[C@@]2(C)C(=CC[C@H]3[C@@H]4CC[C@H]([C@H](C)CCCC(C)C)[C@@]4(C)CC[C@@H]32)C1` (stereo partly shown) [Compound 33, Cholesteryl gamma-vinyl gamma-aminobutyrate hydrochloride], the “Max. DSSR” value in the data set with self-stimulation reward (dose 40 μm/kg) was determined as 83. This molecule also gave a DHL with self-stimulation reward (dose 40 μm/kg, duration half-life of return to 0%) of 1440 to 2880 min.
`CC(C)CCC[C@@H](C)[C@H]1CC[C@H]2[C@@H]3CC=C4C[C@@H](O)CC[C@]4(C)[C@H]3CC[C@]12C` [cholesterol, reference compound]: in data set [1] (setting [8]), the “Onset of seizures: % Saline Control” value was 118 ± 6 % Saline Control and the “Survival Time: % Saline Control” value is 110 ± 7 % Saline Control.
For `C=CC(N)CCC(=O)O` (stereo not shown) [gamma-vinyl GABA, reference compound], in the data set with self-stimulation reward (dose 31 μm/kg), the “Max. DSSR” value came out at 0. The molecule also gave a DHL with self-stimulation reward (dose 31 μm/kg, duration half-life) of 0.
In the case of `NCc1cc(=O)[nH]o1` [muscimol], in the data set with CAI pyramidal cells, the “duration of effect relative to a comparably effective dose of GABA” value is “roughly 100 times” and the “effect with picrotoxin (10 µM) in the medium or low chloride medium” value was “little effect”. Also, the “doses required relative to GABA for effects of comparable magnitude” value with CAI pyramidal cells (concentration in the drug pipette) was “nearly a thousand-fold lower”. In addition, the “inhibition of the evoked population spike” value in the data set with CAI pyramidal cells (droplets applied to the CAI pyramidal layer) is given as “dose-dependent inhibition”.
